# Like-named read-outs stand apart in the source and are kept apart here.
# How the values were obtained:
# [1] = tested on: Key Grass and Sedge Weeds as well as Grass Crops; assay: Post-emergent Test II herbicidal activity (Table 6); format: in vivo; conditions: post-emergence, 336 h; for pest or weed control at 70 g/ha: 70 g ai/ha; for pest or weed control at 140 g/ha: 140 g ai/ha
# In short: (§1)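 Post-emergence foliar spray, 187 L/ha, track sprayer at 43 cm above canopy. Carrier: acetone/water/IPA/DMSO/Atplus 411F/Triton X-155. Plants at 1st–2nd true leaf; subirrigated afterwards; % injury scored visually at 14 d.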
# [2] = tested on: Key Broadleaf Weed and Crop Species; assay: Post-emergent Test II herbicidal activity (Table 5); format: in vivo; conditions: post-emergence, 336 h, 14 days after application; for pest or weed control at 70 g/ha: application rate 70 g ai/ha; for pest or weed control at 140 g/ha: application rate 140 g ai/ha
# In short: as §1
# [3] = CYPES: yellow nutsedge (Cyperus esculentus), read-out: Visual Growth Reduction (%) 14 Days After Application, CYPES
# [4] = DIGSA: crabgrass (Digitaria sanguinalis), read-out: Visual Growth Reduction (%) 14 Days After Application, DIGSA
# [5] = ECHCG: barnyardgrass (Echinochloa crus-galli), read-out: Visual Growth Reduction (%) 14 Days After Application, ECHCG
# [6] = ORYSA: rice (Oryza sativa), crop, read-out: Visual Growth Reduction (%) 14 Days After Application, ORYSA
# [7] = SETFA: giant foxtail (Setaria faberi), read-out: Visual Growth Reduction (%) 14 Days After Application, SETFA
# [8] = SORVU: grain sorghum (Sorghum vulgare), read-out: Visual Growth Reduction (%) 14 Days After Application, SORVU
# [9] = TRZSS (wheat, Triticum aestivum), crop, read-out: Visual Growth Reduction (%) 14 Days After Application, TRZSS
# [10] = ZEAMX: maize, corn (Zea mays), crop, read-out: Visual Growth Reduction (%) 14 Days After Application, ZEAMX
# [11] = ABUTH: velvetleaf (Abutilon theophrasti), read-out: Visual Growth Reduction (%) 14 Days After Application, ABUTH
# [12] = AMARE: redroot pigweed (Amaranthus retroflexus), read-out: Visual Growth Reduction (%) 14 Days After Application, AMARE
# [13] = BRSNN: oilseed-rape, canola (Brassica napus), read-out: Visual Growth Reduction (%) 14 Days After Application, BRSNN
# [14] = CHEAL: lambsquarters (Chenopodium album), read-out: Visual Growth Reduction (%) 14 Days After Application, CHEAL
# [15] = EPHHL: wild poinsettia (Euphorbia heterophylla), read-out: Visual Growth Reduction (%) 14 Days After Application, EPHHL
# [16] = HELAN: sunflower (Helianthus annuus), read-out: Visual Growth Reduction (%) 14 Days After Application, HELAN
# [17] = VIOTR: wild pansy (Viola tricolor), read-out: Visual Growth Reduction (%) 14 Days After Application, VIOTR
smiles,measurement,setting,value
COC(=O)c1nc(-c2ccc(Br)cc2)cc(N)c1Cl [Compound 67],pest or weed control at 70 g/ha,[1]; [3],95 to 100%
same,pest or weed control at 140 g/ha,[1]; [3],95 to 100%
same,pest or weed control at 70 g/ha,[1]; [4],60 to 74%
same,pest or weed control at 140 g/ha,[1]; [4],75 to 84%
same,pest or weed control at 70 g/ha,[1]; [5],85 to 94%
same,pest or weed control at 140 g/ha,[1]; [5],95 to 100%
same,pest or weed control at 70 g/ha,[1]; [6],0 to 29%
same,pest or weed control at 140 g/ha,[1]; [6],0 to 29%
same,pest or weed control at 70 g/ha,[1]; [7],0 to 29%
same,pest or weed control at 140 g/ha,[1]; [7],0 to 29%
same,pest or weed control at 70 g/ha,[1]; [8],85 to 94%
same,pest or weed control at 140 g/ha,[1]; [8],85 to 94%
same,pest or weed control at 70 g/ha,[1]; [9],0 to 29%
same,pest or weed control at 140 g/ha,[1]; [9],0 to 29%
same,pest or weed control at 70 g/ha,[1]; [10],0 to 29%
same,pest or weed control at 140 g/ha,[1]; [10],45 to 59%
same,pest or weed control at 70 g/ha,[2]; [11],95 to 100%
same,pest or weed control at 140 g/ha,[2]; [11],95 to 100%
same,pest or weed control at 70 g/ha,[2]; [12],95 to 100%
same,pest or weed control at 140 g/ha,[2]; [12],95 to 100%
same,pest or weed control at 70 g/ha,[2]; [13],0 to 29%
same,pest or weed control at 140 g/ha,[2]; [13],60 to 74%
same,pest or weed control at 70 g/ha,[2]; [14],95 to 100%
same,pest or weed control at 140 g/ha,[2]; [14],95 to 100%
same,pest or weed control at 70 g/ha,[2]; [15],95 to 100%
same,pest or weed control at 140 g/ha,[2]; [15],95 to 100%
same,pest or weed control at 70 g/ha,[2]; [16],85 to 94%
same,pest or weed control at 140 g/ha,[2]; [16],95 to 100%
same,pest or weed control at 70 g/ha,[2]; [17],0 to 29%
same,pest or weed control at 140 g/ha,[2]; [17],0 to 29%

# Source: patent publication US9113629B2, “4-amino-6-(4-substituted-phenyl)-picolinates and 6-amino-2-(4-substituted-phenyl)-pyrimidine-4-carboxylates and their use as herbicides” (DOW AGROSCIENCES LLC, priority 2013, dated 2015)
